This note sets out measurements from patent US12508239B2, “Alcohol derivatives as Kv7 potassium channel openers for use in epilepsy or seizures” (H. Lundbeck A/S, priority 2019, dated 2025).

For data set [1], the target named is T1, hKv7.2/hKv7.3 (Homo sapiens, UniProt O43525+O43526).
T1 construct: P2A self-cleaving linker (remnant after ribosomal skipping); expressed in transfected cells; vector pcDNA5/FRT/TO
Briefly: Thallium influx assay for potassium channel activation. The data set is classed as cell-based. The note with it: HEK-hKv7.2/hKv7.3 cells; AUC readout normalized to a reference compound. On the procedure:
(§1) A synthesized cDNA fragment encoding human Kv7.3 and human Kv7.2 separated by a P2A sequence was inserted into the pcDNA5/FRT/TO vector using the BamHI and XhoI restriction sites. The construct was then transfected into HEK Flp-In 293 cells using Lipofectamine2000. The transfected cells were grown for 48 hours in DMEM containing 10% (v/v) FBS and 1% PenStrep and subsequently maintained under selection in DMEM containing 10% (v/v) FBS, 1% PenStrep and 200 ug/mL Hygromycin B at 37° C. in a humidified atmosphere of 5% CO2.
The thallium influx assay for potassium channel activation was performed analogously to a published procedure (C. D. Weaver, et al., J Biomol Screen 2004, 9, 671-677) using the FLIPR Potassium Assay kit (Molecular Devices). HEK-hKv7.2/hKv7.3 cells were plated onto 96-well, black-walled, clear-bottomed culture plates (Corning, Acton, MA, USA) at a density of 80,000 cells/well (100 μl/well) if the cells were assayed the following day, or 40,000 cells/well (100 μl/well) if the cells were assayed two days after seeding.
On the assay day, the medium was removed after which 50 uL/well of test compound diluted to 2× final concentration in HBSS containing 20 mM HEPES, and 50 uL/well of 2× dye load buffer were added. The cells were then incubated for 60 min at room temperature in the dark. Chloride-free stimulation buffer containing Tl^+ and K^+ at 5× final concentration (5× concentration: 5 mM in both cases) and test compound at 1× final concentration, were prepared during the incubation. The cells were then assayed in a FDSS7000EX Functional Drug Screening System (Hamamatsu). Following 60 sec of baseline fluorescence signal reading at 0.1 Hz, and 10 sec at 1 Hz, 25 uL/well of stimulation buffer were added and the fluorescence continuously measured for 50 sec at 1 Hz followed, by 4 min at 0.1 Hz. Compound effect was quantified using AUC as readout and normalized to a reference compound, which was included on each plate.

The test system of data set [2] is rats. In words: Maximal electroshock seizure threshold test (MEST) in rats. The data set is classed as in vivo, rat. The note with it: for seizure threshold: rats. The protocol: (§2) Significant differences between drug-treated animals and controls were assessed according to Litchfield and Wilcoxon, Pharmacol Exp Ther. 1949; 96(1):99-113
On the technique in general: Protection in the maximal electroshock model is a classic sign of anticonvulsant action.

In data set [3] the test system is mice. In words: Maximal electroshock seizure threshold test (MEST) in mice. To be noted: corneal electrodes. The data set is classed as in vivo, mouse. The protocol:
as §2

Data set [4] addresses T1, hKv7.2/hKv7.3. In words: Automated whole cell patch-clamp of stable HEK-hKv7.2/hKv7.3 cell line. The format is cell-based. To be noted: functional test of the cell line. On the procedure: as §1
A general note: The patch-clamp technique gives a direct electrical read-out from membranes.

Compound `C[C@H](NC(=O)C[C@H](O)C1CC(F)(F)C1)c1cccc(OC(F)(F)F)c1` [Example 11a, 3-(3,3-Difluorocyclobutyl)-3-hydroxy-N—((S)-1-(3-(trifluoromethoxy)phenyl)ethyl) propanamide] displayed an EC50 in data set [1] of 1500 nM.

Take `C[C@H](NC(=O)CC1(O)CC(F)(F)C1)c1cccc(OC(F)(F)F)c1` [Example 5, (S)-2-(3,3-difluoro-1-hydroxycyclobutyl)-N-(1-(3-(trifluoromethoxy)phenyl)ethyl) acetamide]: the “seizure threshold CC50 (current producing tonic hind limb extensor seizures in 50% of animals)” value in data set [2] (rat, acute peroral administration 30 min prior to test, all doses tested 0.03-1 mg/kg, relative to vehicle) is “significantly increased”. Moreover, the seizure threshold result is given as “significant increase” in data set [2] (pretreatment with a single acute administration) and “significant increase” in data set [2] (repeated administration (once daily, 15 days)). In data set [3], the “current required to induce an electroconvulsion, i.e. seizure threshold” value is reported as “dose-dependent significant increase”.

Consider `C[C@H](NC(=O)CC(C)(O)C(F)(F)C(F)F)c1cccc(OC(F)(F)F)c1` (single isomer, unassigned) [Example 10a], for which a half-maximal response in data set [1] (EC50) required 650 nM.

`O=C1c2ccccc2C(Cc2ccncc2)(Cc2ccncc2)c2ccccc21` [XE991]: the “effect on Kv7-current” value in data set [4] is on record as “sensitive”.

Regarding `C[C@H](NC(=O)C[C@@](C)(O)CC(F)(F)F)c1cccc(OC(F)(F)F)c1` (single isomer, unassigned) [Example 13a], the concentration giving a half-maximal response (EC50) in data set [1] is 1900 nM.

In the case of `CCOC(=O)Nc1ccc(NCc2ccc(F)cc2)cc1N` [Retigabine, N-(2-amino-4-(4-fluorobenzylamino)-phenyl) carbamic acid ethyl ester], the “effect on Kv7-current” value in data set [4] was “potentiated”.

As usually defined, the EC50 is the concentration needed to bring the measured effect to its halfway point. A lower EC50 goes with higher potency in that assay.
